# Assay results published in US20060130162A1, “Shrimp and the production thereof” (priority 2002, published 2006).
# Several values for one entry are separate records, joined by “and”; a condition that tells them apart may be missing. Equal entries are not always repeated.
# Tested on: Juvenile shrimp
# Test: Carotenoid content of shrimp fed lutein-enriched Designer Diet (HPLC carotenoid analysis)
# Type: in vivo
# Parameters: AsX (astaxanthin) content of shrimp / Lutein content of shrimp / Other carotenoid content of shrimp / Total carotenoid content of shrimp / AsX (astaxanthin) content of shrimp, Mean / Lutein content of shrimp, Mean / Other carotenoid content of shrimp, Mean / Total carotenoid content of shrimp, Mean: unit not given here
# Protocol: Juvenile shrimp (1-5 g) were cultured in 20 L tanks (5-10 shrimp per tank) at 23 degrees Celsius using standard shrimp diets (e.g., Rangen 35/2.5 shrimp diet). Test diets were prepared containing a 2:1 mixture of Rangen control feed with Lutein (Twin Labs) for a final lutein concentration in the diet of 8g/kg diet. Shrimp were fed at 0.3% body weight 2×/day for the duration of the experiment.
# Following 14 days of feeding, the shrimp were collected, frozen to −20° C. and lyophilized prior to chemical analysis.
# [1] = Mean of lutein group, lutein 8g/kg diet, 14 days of feeding
# [2] = individual sample, lutein 8g/kg diet, 14 days of feeding
smiles,measurement,setting,value
CC1=C[C@H](O)CC(C)(C)[C@H]1/C=C/C(C)=C/C=C/C(C)=C/C=C/C=C(C)/C=C/C=C(C)/C=C/C1=C(C)C[C@@H](O)CC1(C)C [Lutein],"A/L (astaxanthin / lutein), Mean",[1],2.23.
same,"A/T (astaxanthin / total carotenoids), Mean",[1],53%
same,"AsX (astaxanthin) content of shrimp, Mean",[1],6.24
same,"L + O/T (lutein + other / total carotenoids), Mean",[1],47%
same,"L/T (lutein / total carotenoids), Mean",[1],33%
same,"Lutein content of shrimp, Mean",[1],4.64
same,"Other carotenoid content of shrimp, Mean",[1],1.62
same,"Total carotenoid content of shrimp, Mean",[1],12.49
same,Effect of lutein enrichment on shrimp appearance (FIG. 1),"before cooking and after cooking, compared with non-enriched shrimp","larger, more colorful"
same,A/L (astaxanthin / lutein),[2],3.79 and 1.80 and 0.49 and 1.09 and 3.99
same,A/T (astaxanthin / total carotenoids),[2],68% and 54% and 30% and 45% and 70%
same,AsX (astaxanthin) content of shrimp,[2],6.45 and 4.91 and 4.63 and 8.37 and 6.82
same,L + O/T (lutein + other / total carotenoids),[2],32% and 46% and 70% and 55% and 30%
same,L/T (lutein / total carotenoids),[2],18% (2×) and 30% and 61% and 41%
same,Lutein content of shrimp,[2],1.70 and 2.73 and 9.39 and 7.65 and 1.71
same,Other carotenoid content of shrimp,[2],1.38 and 1.40 and 1.47 and 2.70 and 1.15
same,Total carotenoid content of shrimp,[2],9.53 and 9.04 and 15.49 and 18.72 and 9.68
